{"source": "patent US20220273659A1", "about": "“HETEROCYCLIC COMPOUNDS AS KINASE INHIBITORS” (NUVATION BIO INC., priority 2019, published 2022)", "key": {"[1]": {"test_system": "DU4475 breast carcinoma cells", "assay": "Cancer cell proliferation assay, single agent (cell viability)", "format": "cell-based", "conditions": "Homo sapiens, DU-4475; Table 4; Rb negative; treatment 144 Hr with medium change at 72 Hr; Cell Titer-Glo or resazurin", "procedure,_shortened": "(§1)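 Viability read by resazurin or CellTiter-Glo after 24 h treatment (BT-549) or 144 h with a 72 h medium change (MCF-7, DU4475). Compounds tested at 7–9 concentrations, e.g. 1.1 nM–10 μM, added the day after seeding; IC50 by nonlinear sigmoidal regression.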"}, "[2]": {"test_system": "MCF-7 breast adenocarcinoma cells", "assay": "Cancer cell proliferation assay, single agent (cell viability)", "format": "cell-based", "conditions": "Homo sapiens", "procedure,_shortened": "as §1"}, "CDK4": {"target": "T1, CDK4 (Homo sapiens, UniProt P11802)", "T1 construct": "purchased Invitrogen PR8064A", "T1 sequence (P11802 whole entry)": "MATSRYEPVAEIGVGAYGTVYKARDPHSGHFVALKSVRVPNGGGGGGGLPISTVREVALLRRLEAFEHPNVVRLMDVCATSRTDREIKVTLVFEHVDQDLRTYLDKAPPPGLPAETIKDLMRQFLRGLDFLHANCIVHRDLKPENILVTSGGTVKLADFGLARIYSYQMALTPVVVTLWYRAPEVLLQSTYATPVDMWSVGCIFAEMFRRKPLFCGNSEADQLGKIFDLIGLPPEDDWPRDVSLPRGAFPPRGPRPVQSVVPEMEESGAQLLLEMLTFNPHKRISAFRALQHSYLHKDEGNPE", "T1 sequence (P24385 whole entry partner)": "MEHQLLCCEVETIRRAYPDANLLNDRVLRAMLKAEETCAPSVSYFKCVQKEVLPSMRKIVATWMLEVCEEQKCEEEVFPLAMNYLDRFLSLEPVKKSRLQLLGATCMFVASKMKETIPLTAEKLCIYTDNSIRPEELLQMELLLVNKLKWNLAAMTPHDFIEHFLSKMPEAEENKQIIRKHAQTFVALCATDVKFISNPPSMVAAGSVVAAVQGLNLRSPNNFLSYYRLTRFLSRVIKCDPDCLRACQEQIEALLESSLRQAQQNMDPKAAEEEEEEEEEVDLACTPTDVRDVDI", "assay": "In vitro kinase inhibition IC50, luminescence (ADP Glo), retinoblastoma substrate", "format": "biochemical", "conditions": "read-out: CDK4/D1 IC50", "procedure,_shortened": "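Inhibition of CDK4 was quantified by ADP Glo luminescence with retinoblastoma as substrate. Reactions held 5 nM kinase, 1 μM retinoblastoma and 25 μM ATP and ran 2H at room temperature. A Synergy Neo reader took signals 15 min and 45 min after detection reagent, and percent inhibition was fitted to a four-parameter logistic model in XLfit to obtain IC50.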"}, "CDK6": {"target": "T2, CDK6 (Homo sapiens, UniProt Q00534)", "T2 construct": "purchased Invitrogen PR8422B", "T2 sequence (Q00534 whole entry)": "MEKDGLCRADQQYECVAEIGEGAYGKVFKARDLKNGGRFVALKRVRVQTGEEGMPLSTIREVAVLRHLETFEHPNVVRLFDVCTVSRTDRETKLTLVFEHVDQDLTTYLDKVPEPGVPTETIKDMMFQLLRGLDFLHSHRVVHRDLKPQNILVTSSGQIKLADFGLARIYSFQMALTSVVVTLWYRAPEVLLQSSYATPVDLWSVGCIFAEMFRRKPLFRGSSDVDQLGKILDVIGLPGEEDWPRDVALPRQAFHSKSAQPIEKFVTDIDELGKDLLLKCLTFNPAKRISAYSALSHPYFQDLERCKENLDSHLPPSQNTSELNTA", "T2 sequence (P24385 whole entry partner)": "as the sequence (P24385 whole entry partner) above", "assay": "In vitro kinase inhibition IC50, luminescence (ADP Glo), retinoblastoma substrate", "format": "biochemical", "conditions": "read-out: CDK6/D1 IC50", "procedure,_shortened": "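IC50 derived by four-parameter logistic fit of percent inhibition, read as ADP-Glo luminescence. Reactions: 5 nM CDK6, 1 μM retinoblastoma, 25 μM ATP, test compound 0.1–200 nM final, 2 h at room temperature.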"}, "CDK2 (cyclin A)": {"target": "T3, CDK2 (cyclin A) (Homo sapiens, UniProt P24941)", "T3 construct": "purchased Invitrogen Life Technologies (assay service)", "assay": "Z'-LYTE kinase assay", "format": "biochemical", "procedure,_shortened": "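FRET-based Z′-LYTE read-out using 1.22–10.3 ng CDK2/cyclin A with Ser/Thr 12 peptide (2 μM in the 2× mix) and ATP (31 μM as the 4× solution), in HEPES pH 7.5, MgCl2, EGTA and BRIJ-35, for 60 min at room temperature. After 1 h of development, the 445/520 nm emission was read, and percent inhibition was fitted to a four-parameter logistic curve for IC50.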"}, "CDK1 (cyclin B)": {"target": "T4, CDK1 (cyclin B) (Homo sapiens, UniProt P06493)", "T4 construct": "purchased Invitrogen Life Technologies (assay service)", "T4 sequence (P06493 whole entry)": "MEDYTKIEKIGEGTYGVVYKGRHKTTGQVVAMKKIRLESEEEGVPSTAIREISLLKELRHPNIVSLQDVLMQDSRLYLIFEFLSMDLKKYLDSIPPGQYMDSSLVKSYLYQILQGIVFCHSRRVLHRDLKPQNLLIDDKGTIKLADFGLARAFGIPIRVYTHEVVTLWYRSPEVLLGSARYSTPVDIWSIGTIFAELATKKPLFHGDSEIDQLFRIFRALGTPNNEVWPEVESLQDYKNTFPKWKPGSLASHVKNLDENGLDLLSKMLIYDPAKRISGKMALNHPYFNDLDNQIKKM", "T4 sequence (P14635 whole entry partner)": "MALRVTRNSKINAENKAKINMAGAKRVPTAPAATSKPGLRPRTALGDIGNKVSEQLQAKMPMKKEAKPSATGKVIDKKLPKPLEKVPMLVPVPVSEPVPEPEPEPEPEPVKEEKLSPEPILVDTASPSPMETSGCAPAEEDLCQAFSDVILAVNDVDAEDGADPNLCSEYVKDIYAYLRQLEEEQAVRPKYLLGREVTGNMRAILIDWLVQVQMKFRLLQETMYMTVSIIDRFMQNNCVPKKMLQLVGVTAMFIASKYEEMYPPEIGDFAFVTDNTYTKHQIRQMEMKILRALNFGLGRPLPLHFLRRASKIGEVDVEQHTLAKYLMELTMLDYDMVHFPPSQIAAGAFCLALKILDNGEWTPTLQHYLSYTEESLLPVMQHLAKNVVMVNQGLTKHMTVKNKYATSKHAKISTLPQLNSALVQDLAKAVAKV", "assay": "Z'-LYTE kinase assay", "format": "biochemical", "description": "The plates were shaken for 30 seconds, and incubated for 60 minutes at room temperature. […] The plates were read on fluorescence plate reader with Dual emission at 445 nm and 520 nm.\nThe following equations were used for Z′-LYTE™ Screening Assay Data Analysis."}, "FMS kinase": {"target": "T5, FMS kinase (Homo sapiens, UniProt P07333)", "T5 construct": "purchased Invitrogen (Life Technologies)", "T5 sequence (P07333 20-972)": "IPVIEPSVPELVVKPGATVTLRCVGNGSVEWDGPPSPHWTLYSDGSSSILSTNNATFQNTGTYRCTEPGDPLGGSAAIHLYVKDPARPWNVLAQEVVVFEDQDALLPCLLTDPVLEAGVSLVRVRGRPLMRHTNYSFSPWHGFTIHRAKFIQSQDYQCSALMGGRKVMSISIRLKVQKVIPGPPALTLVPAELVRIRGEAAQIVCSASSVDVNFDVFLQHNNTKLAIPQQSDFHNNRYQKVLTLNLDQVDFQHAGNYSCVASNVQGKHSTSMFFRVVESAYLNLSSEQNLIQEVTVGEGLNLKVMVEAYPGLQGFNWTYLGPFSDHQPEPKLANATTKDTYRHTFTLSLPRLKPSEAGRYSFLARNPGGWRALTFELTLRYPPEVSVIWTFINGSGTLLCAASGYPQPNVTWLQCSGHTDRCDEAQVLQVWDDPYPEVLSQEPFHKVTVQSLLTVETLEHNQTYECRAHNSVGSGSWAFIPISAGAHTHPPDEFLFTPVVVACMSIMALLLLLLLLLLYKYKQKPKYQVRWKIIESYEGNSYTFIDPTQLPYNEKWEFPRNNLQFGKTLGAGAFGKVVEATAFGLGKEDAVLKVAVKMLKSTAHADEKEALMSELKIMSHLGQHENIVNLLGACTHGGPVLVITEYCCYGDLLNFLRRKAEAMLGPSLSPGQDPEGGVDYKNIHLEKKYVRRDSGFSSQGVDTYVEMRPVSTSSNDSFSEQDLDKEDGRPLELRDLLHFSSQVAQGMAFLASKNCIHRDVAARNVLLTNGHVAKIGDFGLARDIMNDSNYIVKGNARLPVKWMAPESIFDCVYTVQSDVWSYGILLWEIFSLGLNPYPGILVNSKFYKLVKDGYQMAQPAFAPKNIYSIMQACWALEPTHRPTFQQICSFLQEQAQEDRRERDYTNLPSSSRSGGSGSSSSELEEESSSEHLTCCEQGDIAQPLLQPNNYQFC", "assay": "LanthaScreen Eu Kinase Binding Assay (ATP, fluorescent-PolyGT substrate)", "format": "biochemical", "procedure,_shortened": "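TR-FRET read (ex 340, em 495 and 520 nm) after EDTA/Tb-labelled antibody stop; IC50 by four-parameter logistic fit of percent inhibition. Reaction: 1.25 nM FMS, 10 min compound preincubation (3-fold series), then 1 h at room temperature with 10 μM ATP and 200 nM fluorescent PolyGT.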"}, "[3]": {"test_system": "MCF-7-PR (palbociclib-resistant MCF-7) cells", "assay": "Cell viability in palbociclib-resistant cell line", "format": "cell-based", "conditions": "for pIC50: Homo sapiens, MCF7, Table 5, palbociclib-resistant cell line maintained at about 850 nM palbociclib", "description": "Cells were treated with test compounds at 7 to 9 concentrations within a desired concentration range (e.g. 1.1 nM-10 μM) on day 2 by series diluting the test compound stock solution (10 mM in DMSO) with culture medium. Treatment duration was 24 Hr for BT-549 cells and 144 Hr (with a medium change at 72 Hr) for MCF-7 and DU4475 cells. Cell viability was assessed by Cell Titer-Glo® as recommended by Promega (Cat. No.: G7572), or by resazurin assay (Sigma Aldrich, Cat. No.: R7017) post treatment.\nCell viability data were plotted using GraphPad Prism (GraphPad Software, Inc., San Diego, Calif.). In addition, a nonlinear regression model with a sigmoidal dose response and variable slope within GraphPad Prism was used to calculate the IC50 value of individual test compounds.\nThe effects of test compounds in a palbociclib-resistant cell line and a parental, non-resistant cell line were compared. The palbociclib-resistant cell line (“MCF-7-PR”) was derived from the parental, non-resistant cell line (MCF-7 breast adenocarcinoma cells) by culture of cells over a period of three months in increasing concentrations of palbociclib, starting from about 350 nM and ending at about 850 nM, the final concentration at which they were then maintained in culture. The MCF-7-PR cells were checked using a cell viability assay to confirm that they had at least 5-fold resistance to palbociclib compared to parental MCF-7 cells, as measured by an increase in the cell viability IC50 values. Assessment of cell viability following treatment with palbociclib or test compounds was performed according to the method described above for MCF-7 cells."}, "PI3Kδ kinase": {"target": "T6, PI3Kδ kinase (Homo sapiens, UniProt O00329)", "T6 construct": "purchased Reaction Biology Corporation (assay service)", "assay": "PI3Kδ kinase assay (ADP-Glo, Reaction Biology)", "format": "biochemical", "procedure,_shortened": "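Kinase in Tris-HCl 40 mM pH 7.5, MgCl2 20 mM, orthovanadate 3 mM, DTT 2 mM, 0.05% CHAPS, 1% DMSO, preincubated 10 min at room temperature with compound (about 0.5 nM–100 μM). ATP started a 30-min reaction at 30 °C. ADP-Glo luminescence converted to μM ADP via standard curve; IC50 from nonlinear regression.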"}, "[4]": {"test_system": "Rb Ser780 phosphorylation in MCF-7 cells", "assay": "Determination of pRb levels (Ser780 phosphorylation, ELISA)", "format": "cell-based", "conditions": "Homo sapiens, MCF7, 24H treatment, read-out: Inhibition of Rb phosphorylation IC50", "description": "Hypo-phosphorylation of the retinoblastoma protein (Rb) by cyclin D:Cdk4/6 complexes results in active Rb, which is a clinically relevant biomarker associated with CDK4 or CDK6 inhibition. As a confirmatory measure of functional activity of CDK4/6, the Ser780 phosphorylation state of Rb was assessed. MCF-7 cells were plated at 2.5×10^5 to 3.0×10^6 cells/well in 6-well cell-culture plates and incubated at 37° C. for 24H in MEM medium supplemented with 10% FBS. Cells were treated for 24H with a medium containing test compound at various concentrations (e.g., 0.01, 0.1, […]) or with DMSO (≤1%) in duplicate. After incubation period, the media was removed, and cells were rinsed once with ice-cold PBS and lysed with 0.2 mL of Cell Lysis Buffer containing 1 mM PMSF and Protease Inhibitor. Protein concentration was estimated following Bradford method. The lysis and the Rb measurements were performed following the manufacturer's ELISA kit protocols and buffers (Cell Signaling Technology, Cat. No.: 13016C). Rb inhibition of test compounds was calculated as percentage of vehicle control. In some cases, a nonlinear regression model with a sigmoidal dose response and variable slope within GraphPad Prism was used to calculate the IC50 value of Rb inhibition for individual test compounds."}, "CDK9 (cyclin K)": {"target": "T7, CDK9 (cyclin K) (Homo sapiens, UniProt P50750)", "T7 construct": "purchased Invitrogen Life Technologies (assay service)", "T7 sequence (P50750 whole entry)": "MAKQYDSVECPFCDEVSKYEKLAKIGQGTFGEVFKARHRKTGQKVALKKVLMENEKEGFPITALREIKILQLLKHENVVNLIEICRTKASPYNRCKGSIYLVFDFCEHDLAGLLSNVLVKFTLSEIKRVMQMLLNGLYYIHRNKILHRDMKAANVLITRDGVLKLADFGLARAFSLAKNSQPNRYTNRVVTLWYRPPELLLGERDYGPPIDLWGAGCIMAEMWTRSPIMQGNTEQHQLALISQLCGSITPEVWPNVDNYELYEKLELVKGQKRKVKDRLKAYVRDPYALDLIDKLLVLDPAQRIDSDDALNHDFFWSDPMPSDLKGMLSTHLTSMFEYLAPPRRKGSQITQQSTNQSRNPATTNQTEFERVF", "T7 sequence (O75909 whole entry partner)": "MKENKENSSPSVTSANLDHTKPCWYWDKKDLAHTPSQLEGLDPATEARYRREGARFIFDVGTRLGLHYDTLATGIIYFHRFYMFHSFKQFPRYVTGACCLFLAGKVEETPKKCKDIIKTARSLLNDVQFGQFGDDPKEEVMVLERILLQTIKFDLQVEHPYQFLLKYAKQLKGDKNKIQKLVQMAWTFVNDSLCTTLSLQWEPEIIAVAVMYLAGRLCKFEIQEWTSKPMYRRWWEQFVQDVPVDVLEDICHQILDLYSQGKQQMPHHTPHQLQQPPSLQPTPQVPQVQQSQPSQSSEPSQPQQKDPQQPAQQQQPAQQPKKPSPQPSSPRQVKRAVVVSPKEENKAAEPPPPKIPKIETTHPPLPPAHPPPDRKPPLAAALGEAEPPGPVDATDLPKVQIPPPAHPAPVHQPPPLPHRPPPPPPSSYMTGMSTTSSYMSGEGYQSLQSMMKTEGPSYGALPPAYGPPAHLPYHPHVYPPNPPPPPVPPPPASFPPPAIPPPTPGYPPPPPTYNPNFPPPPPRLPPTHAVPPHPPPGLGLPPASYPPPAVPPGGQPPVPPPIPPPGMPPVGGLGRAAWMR", "assay": "LanthaScreen Eu Kinase Binding Assay", "description": "0.16 μL of 100×test compound in 100% DMSO (at specific solutions) were mixed with 3.84 μL of Kinase Buffer (50 mM HEPES pH 7.5, 0.01% BRIJ-35, 10 mM MgCl2, 1 mM EGTA), 8.0 μL of 2× Kinase (5 nM)/Antibody (Eu-anti-His, 2 nM) Mixture and 4.0 μL of 4×Tracer (Tracer 236, 100 nM). The plates were shaken for 30 seconds, and incubated for 60 minutes at room temperature. The plates were read on fluorescence plate reader with Dual emission at 615 nm and 665 nm.\nThe following equations were used for LanthaScreen Eu Kinase Binding Assay Data Analysis. Percent inhibition (100-% activity) was fitted to the “four-parameter logistic model” in XLfit for determination of IC50 values."}, "[5]": {"conditions": "MCF7, Table 4, Rb positive, treatment 144 Hr with medium change at 72 Hr, Cell Titer-Glo or resazurin"}, "[6]": {"conditions": "MCF7, Table 5, parental, non-resistant cell line compared with MCF-7-PR"}}, "note": "pIC50: −log10 of the molar value. Read-outs that look alike come from different tables or passages of the source.", "data": [{"molecule": "CS(=O)(=O)N1CCC(Nc2ncc3cc(C#N)c(=O)n([C@H]4C[C@@H]5CC[C@H]4C5)c3n2)CC1", "note": "(racemic) [Compound No. 353, 8-((1S,2S,4R)-bicyclo[2.2.1]heptan-2-yl)-2-(1-(methylsulfonyl)piperidin-4-ylamino)-7-oxo-7,8-dihydropyrido[2,3-d]pyrimidine-6-carbonitrile]", "values": [{"measurement": "pIC50", "setting": "[1]", "result": 6.05}, {"measurement": "pIC50", "setting": "[2]; [5]", "result": 6.29}, {"measurement": "pIC50", "setting": "[2]; [6]", "result": 6.46}, {"measurement": "pIC50", "setting": "CDK4", "result": 7.82}, {"measurement": "pIC50", "setting": "CDK6", "result": 7.89}, {"measurement": "pIC50", "setting": "CDK2 (cyclin A)", "result": 8.00}, {"measurement": "pIC50", "setting": "CDK1 (cyclin B)", "result": "< 5.59"}, {"measurement": "pIC50", "setting": "FMS kinase", "result": 7.16}, {"measurement": "pIC50", "setting": "[3]", "result": 6.11}]}, {"molecule": "N#Cc1cc2cnc(Nc3ccc(N4CCNCC4)c(Cl)c3)nc2n(C2CCCC2)c1=O", "note": "[Compound No. 30, 2-((3-chloro-4-(piperazin-1-yl)phenyl)amino)-8-cyclopentyl-7-oxo-7,8-dihydropyrido[2,3-d]pyrimidine-6-carbonitrile]", "values": [{"measurement": "pIC50", "setting": "[2]; [5]", "result": 6.96}, {"measurement": "pIC50", "setting": "[2]; [6]", "result": 6.94}, {"measurement": "pIC50", "setting": "CDK4", "result": 8.35}, {"measurement": "pIC50", "setting": "CDK6", "result": 8.02}, {"measurement": "pIC50", "setting": "FMS kinase", "result": 8.22}, {"measurement": "pIC50", "setting": "[3]", "result": 7.07}]}, {"molecule": "N#Cc1cc2cnc(Nc3ccc(N4CCNCC4)c(C(F)(F)F)c3)nc2n(C2CCCC2)c1=O", "note": "[Compound No. 33, 8-cyclopentyl-7-oxo-2-((4-(piperazin-1-yl)-3-(trifluoromethyl)phenyl)amino)-7,8-dihydropyrido[2,3-d]pyrimidine-6-carbonitrile]", "values": [{"measurement": "pIC50", "setting": "[2]; [5]", "result": 6.81}, {"measurement": "pIC50", "setting": "[2]; [6]", "result": 6.69}, {"measurement": "pIC50", "setting": "CDK4", "result": "< 6.70"}, {"measurement": "pIC50", "setting": "CDK6", "result": "< 6.70"}, {"measurement": "pIC50", "setting": "FMS kinase", "result": 8.38}, {"measurement": "pIC50", "setting": "PI3Kδ kinase", "result": 5.78}, {"measurement": "pIC50", "setting": "[3]", "result": 7.19}]}, {"molecule": "N#Cc1cc2cnc(Nc3cnn(C4CCNCC4)c3)nc2n(C2CCCC2)c1=O", "note": "[Compound No. 50, 8-cyclopentyl-7-oxo-2-((1-(piperidin-4-yl)-1H-pyrazol-4-yl)amino)-7,8-dihydropyrido [2,3-d] pyrimidine-6-carbonitrile]", "values": [{"measurement": "pIC50", "setting": "[1]", "result": 5.61}, {"measurement": "pIC50", "setting": "[2]; [5]", "result": 6.40}, {"measurement": "pIC50", "setting": "[2]; [6]", "result": 6.18}, {"measurement": "pIC50", "setting": "CDK4", "result": 7.64}, {"measurement": "pIC50", "setting": "CDK6", "result": 7.77}, {"measurement": "pIC50", "setting": "[4]", "result": 6.30}, {"measurement": "pIC50", "setting": "FMS kinase", "result": 9.00}, {"measurement": "pIC50", "setting": "[3]", "result": 5.98}]}, {"molecule": "N#Cc1cc2cnc(Nc3ccc4c(c3)CCN(CCN)C4)nc2n(C2CCCC2)c1=O", "note": "[Compound No. 66, 2-((2-(2-aminoethyl)-1,2,3,4-tetrahydroisoquinolin-6-yl)amino)-8-cyclopentyl-7-oxo-7,8-dihydropyrido[2,3-d]pyrimidine-6-carbonitrile]", "values": [{"measurement": "pIC50", "setting": "[1]", "result": 6.01}, {"measurement": "pIC50", "setting": "[2]; [5]", "result": 6.25}, {"measurement": "pIC50", "setting": "CDK4", "result": 8.15}, {"measurement": "pIC50", "setting": "CDK6", "result": 8.22}, {"measurement": "pIC50", "setting": "CDK9 (cyclin K)", "result": 7.08}, {"measurement": "pIC50", "setting": "CDK2 (cyclin A)", "result": 6.37}, {"measurement": "pIC50", "setting": "CDK1 (cyclin B); read-out: CDK1/B IC50", "result": 5.76}]}, {"molecule": "CC(=O)c1c(C)c2cnc(Nc3ccc(N4CCNCC4)cn3)nc2n(C2CCCC2)c1=O", "note": "[palbociclib, reference compound]", "values": [{"measurement": "resistance to palbociclib compared to parental MCF-7 cells (increase in cell viability IC50)", "setting": "[3]; MCF-7-PR versus parental MCF-7", "result": "at least 5 fold"}]}]}
